Data as given in patent US20250340520A1, “CRYSTALLINE FORMS OF SODIUM (5-(4-BROMOPHENYL)-6-(2-((5-BROMOPYRIMIDIN-2-YL)OXY)ETHOXY)PYRIMIDIN-4-YL)(SULFAMOYL)AMIDE” (IDORSIA PHARMACEUTICALS LTD, priority 2022, published 2025).

Assay: Comparative stability: HPLC assay of samples stored in open vials
Assay type: physicochemical
Conditions: for assay after storage: open vial; for Initial assay: before storage, HPLC assay
Experimental: The assay was determined by use of UV-HPLC (e.g., Shimadzu Nexera X2 System) with an autosampler temperature set at 25° C. and a column temperature set at 50° C. Typically 1 μL of sample is injected and separation is obtained by use of a Phenomenex Gemini 5.0 μm 110 Å, 50×2.0 mm column using a flow of 1.5 mL/min. Samples are typically prepared by solubilization in acetonitrile/carbonate buffer pH10 1/1. A gradient method is used with solvent A consisting of Trizma base buffer 50 mM pH 9 (adjusted with HCl) and solvent B consisting of Acetonitrile+5% (v/v) Trizma base buffer 50 mM pH 9 (adjusted with HCl). Following gradient is typically used: […]

SMILES: NS(=O)(=O)[N-]c1ncnc(OCCOc2ncc(Br)cn2)c1-c1ccc(Br)cc1.[Na+] [COMPOUND in crystalline form 1, sodium (5-(4-bromophenyl)-6-(2-((5-bromopyrimidin-2-yl)oxy)ethoxy)pyrimidin-4-yl)(sulfamoyl)amide]
- assay after storage (40° C., 7 days, 11% RH): 104.4%
- assay after storage (40° C., 7 days, 75% RH): 104.0%
- assay after storage (60° C., 7 days, 11% RH): 104.5%
- assay after storage (60° C., 7 days, 75% RH): 102.6%
- assay after storage (80° C., 3 days, 11% RH): 103.4%
- assay after storage (80° C., 3 days, 75% RH): 72.4%
- Initial assay: 104.1%
- chemical stability in comparison to aprocitentan free acid form (in crystalline Form A) (under certain experimental conditions of Table 5): superior chemical stability

SMILES: NS(=O)(=O)Nc1ncnc(OCCOc2ncc(Br)cn2)c1-c1ccc(Br)cc1 [{5-(4-bromo-phenyl)-6-[2-(5-bromo-pyrimidin-2-yloxy)-ethoxy]-pyrimidin-4-yl}-sulfamide, reference compound]
- assay after storage (40° C., 7 days, 11% RH): 97.2%
- assay after storage (40° C., 7 days, 75% RH): 91.8%
- assay after storage (60° C., 7 days, 11% RH): 96.7%
- assay after storage (60° C., 7 days, 75% RH): 93.7%
- assay after storage (80° C., 3 days, 11% RH): 89.7%
- assay after storage (80° C., 3 days, 75% RH): 0.3%
- Initial assay: 96.9%
